For experiment [1], the target named is Ca++/Calmodulin Dep. PK II. The experiment is described as follows: Ca++/Calmodulin Dep. PK II enzyme assay. In kind it is biochemical, rat. The following applies: historical value; read-out: ^1IC, (IC50 of reference compound). As to the method: (§1) The peptide was further screened in vitro in a variety of enzyme and biochemical assays. Methods employed were adapted from the scientific literature to maximize reliability and reproducibility. The primary literature reference for each assay is listed in Table 11 opposite the results for each assay.
(§2) Results presented in Table 10, “Results,” are the average of duplicate determinations, unless otherwise noted.
(§3) Reference compounds were tested concurrently at 5 concentrations as an integral part of each assay to ensure the validity of the results obtained.
(§4) Enzyme assays were performed under conditions described in Table 8, “Experimental Conditions.”. The commercial suppliers and catalog numbers of substrates employed in this study are given in Table 7, “Material Sources.” The name, commercial source, and catalog numbers of concurrent reference compounds (controls) employed in this study are given in Table 9, “Reference Compound Data.” The reaction catalyzed by each enzyme is listed in Table 8, “Experimental Conditions.”
(§5) Biochemical assay results are presented in Table 10, as the percent inhibition of specific binding or activity, and unless noted are the average of duplicate tubes tested at each concentration.

The target in experiment [2] is Protein Kinase C, Non-Select. Description: Protein Kinase C, Non-Select. enzyme assay. The class given is biochemical, rat. Particulars: historical value; read-out: ^1IC, (IC50 of reference compound). The procedure:
as §1, §2, §3, §4, §5

In the case of `CN1CCN(CCCN2c3ccccc3Sc3ccc(C(F)(F)F)cc32)CC1` [Trifluoperazine, reference compound], the IC50 in experiment [1] came out at 27 µM.
As for `CC1CNCCN1S(=O)(=O)c1cccc2cnccc12` (centres unmarked) [Peptide H-7, reference compound], the IC50 in experiment [2] came to 35 µM.

Source of the values: patent publication US6767890B1, “Peptides having anti-cancer and anti-inflammatory activity” (priority 1998, dated 2004).
